Assay results reported in the NIST ThermoML archive (doi:10.1016/j.jct.2015.09.018).
± gives the expanded uncertainty stated by the source.

Experiment: molar heat capacity at constant pressure
Conditions: 101.33 kPa, Crystal 3, relaxation calorimetry

## [O-2].[O-2].[Ti+4] [titanium(IV) oxide]
0.5 K
  molar heat capacity at constant pressure: 0.000432 ± 3.8e-05 J/K/mol
1 K
  molar heat capacity at constant pressure: 0.00103 ± 7e-05 J/K/mol
1.5 K
  molar heat capacity at constant pressure: 0.00196 ± 0.00012 J/K/mol
2 K
  molar heat capacity at constant pressure: 0.00337 ± 0.00019 J/K/mol
2.01 K
  molar heat capacity at constant pressure: 0.00218 ± 0.00019 J/K/mol
2.35 K
  molar heat capacity at constant pressure: 0.00327 ± 0.00019 J/K/mol
2.47 K
  molar heat capacity at constant pressure: 0.00544 ± 0.00033 J/K/mol
2.5 K
  molar heat capacity at constant pressure: 0.00541 ± 0.00031 J/K/mol
2.88 K
  molar heat capacity at constant pressure: 0.00862 ± 0.00048 J/K/mol
3 K
  molar heat capacity at constant pressure: 0.00821 ± 0.00046 J/K/mol
3.5 K
  molar heat capacity at constant pressure: 0.0119 ± 0.0007 J/K/mol
3.72 K
  molar heat capacity at constant pressure: 0.01489 ± 0.00081 J/K/mol
4 K
  molar heat capacity at constant pressure: 0.0165 ± 0.0009 J/K/mol
4.31 K
  molar heat capacity at constant pressure: 0.02048 ± 0.0011 J/K/mol
4.5 K
  molar heat capacity at constant pressure: 0.0221 ± 0.0012 J/K/mol
4.54 K
  molar heat capacity at constant pressure: 0.02277 ± 0.0012 J/K/mol
4.77 K
  molar heat capacity at constant pressure: 0.02538 ± 0.0014 J/K/mol
5 K
  molar heat capacity at constant pressure: 0.0288 ± 0.0016 J/K/mol
5.03 K
  molar heat capacity at constant pressure: 0.02844 ± 0.0015 J/K/mol
5.32 K
  molar heat capacity at constant pressure: 0.03402 ± 0.0018 J/K/mol
5.5 K
  molar heat capacity at constant pressure: 0.0365 ± 0.002 J/K/mol
5.56 K
  molar heat capacity at constant pressure: 0.03861 ± 0.0021 J/K/mol
5.85 K
  molar heat capacity at constant pressure: 0.04314 ± 0.0023 J/K/mol
6 K
  molar heat capacity at constant pressure: 0.0454 ± 0.0025 J/K/mol
6.14 K
  molar heat capacity at constant pressure: 0.04818 ± 0.0026 J/K/mol
6.46 K
  molar heat capacity at constant pressure: 0.05442 ± 0.0029 J/K/mol
6.5 K
  molar heat capacity at constant pressure: 0.0553 ± 0.003 J/K/mol
6.84 K
  molar heat capacity at constant pressure: 0.06161 ± 0.0033 J/K/mol
7 K
  molar heat capacity at constant pressure: 0.0662 ± 0.0036 J/K/mol
7.16 K
  molar heat capacity at constant pressure: 0.06852 ± 0.0037 J/K/mol
7.5 K
  molar heat capacity at constant pressure: 0.0782 ± 0.0042 J/K/mol
7.53 K
  molar heat capacity at constant pressure: 0.07958 ± 0.0043 J/K/mol
7.93 K
  molar heat capacity at constant pressure: 0.08951 ± 0.0048 J/K/mol
8 K
  molar heat capacity at constant pressure: 0.0911 ± 0.0049 J/K/mol
8.34 K
  molar heat capacity at constant pressure: 0.1005 ± 0.0054 J/K/mol
8.5 K
  molar heat capacity at constant pressure: 0.105 ± 0.006 J/K/mol
8.78 K
  molar heat capacity at constant pressure: 0.1124 ± 0.006 J/K/mol
9 K
  molar heat capacity at constant pressure: 0.12 ± 0.006 J/K/mol
9.23 K
  molar heat capacity at constant pressure: 0.1263 ± 0.0068 J/K/mol
9.5 K
  molar heat capacity at constant pressure: 0.135 ± 0.007 J/K/mol
9.74 K
  molar heat capacity at constant pressure: 0.1441 ± 0.0077 J/K/mol
10 K
  molar heat capacity at constant pressure: 0.152 ± 0.008 J/K/mol
10.23 K
  molar heat capacity at constant pressure: 0.1603 ± 0.0086 J/K/mol
10.79 K
  molar heat capacity at constant pressure: 0.1786 ± 0.0096 J/K/mol
11 K
  molar heat capacity at constant pressure: 0.187 ± 0.01 J/K/mol
11.34 K
  molar heat capacity at constant pressure: 0.2003 ± 0.011 J/K/mol
11.93 K
  molar heat capacity at constant pressure: 0.2256 ± 0.012 J/K/mol
12 K
  molar heat capacity at constant pressure: 0.227 ± 0.012 J/K/mol
12.55 K
  molar heat capacity at constant pressure: 0.2505 ± 0.013 J/K/mol
13 K
  molar heat capacity at constant pressure: 0.271 ± 0.015 J/K/mol
13.2 K
  molar heat capacity at constant pressure: 0.2793 ± 0.015 J/K/mol
13.91 K
  molar heat capacity at constant pressure: 0.3136 ± 0.017 J/K/mol
14 K
  molar heat capacity at constant pressure: 0.318 ± 0.017 J/K/mol
14.6 K
  molar heat capacity at constant pressure: 0.3493 ± 0.019 J/K/mol
15 K
  molar heat capacity at constant pressure: 0.37 ± 0.02 J/K/mol
15.37 K
  molar heat capacity at constant pressure: 0.3923 ± 0.021 J/K/mol
16 K
  molar heat capacity at constant pressure: 0.428 ± 0.023 J/K/mol
16.16 K
  molar heat capacity at constant pressure: 0.4371 ± 0.023 J/K/mol
16.99 K
  molar heat capacity at constant pressure: 0.4905 ± 0.026 J/K/mol
17 K
  molar heat capacity at constant pressure: 0.491 ± 0.026 J/K/mol
17.87 K
  molar heat capacity at constant pressure: 0.5493 ± 0.029 J/K/mol
18 K
  molar heat capacity at constant pressure: 0.559 ± 0.03 J/K/mol
18.78 K
  molar heat capacity at constant pressure: 0.6158 ± 0.033 J/K/mol
19 K
  molar heat capacity at constant pressure: 0.634 ± 0.034 J/K/mol
19.77 K
  molar heat capacity at constant pressure: 0.6928 ± 0.037 J/K/mol
20 K
  molar heat capacity at constant pressure: 0.714 ± 0.038 J/K/mol
20.78 K
  molar heat capacity at constant pressure: 0.7811 ± 0.042 J/K/mol
21.84 K
  molar heat capacity at constant pressure: 0.8773 ± 0.047 J/K/mol
23.01 K
  molar heat capacity at constant pressure: 0.9887 ± 0.053 J/K/mol
24.2 K
  molar heat capacity at constant pressure: 1.12 ± 0.06 J/K/mol
25 K
  molar heat capacity at constant pressure: 1.21 ± 0.06 J/K/mol
25.43 K
  molar heat capacity at constant pressure: 1.26 ± 0.07 J/K/mol
26.78 K
  molar heat capacity at constant pressure: 1.42 ± 0.08 J/K/mol
28.14 K
  molar heat capacity at constant pressure: 1.6 ± 0.09 J/K/mol
29.6 K
  molar heat capacity at constant pressure: 1.8 ± 0.1 J/K/mol
30 K
  molar heat capacity at constant pressure: 1.85 ± 0.1 J/K/mol
31.12 K
  molar heat capacity at constant pressure: 2.01 ± 0.11 J/K/mol
32.74 K
  molar heat capacity at constant pressure: 2.25 ± 0.12 J/K/mol
34.45 K
  molar heat capacity at constant pressure: 2.52 ± 0.13 J/K/mol
35 K
  molar heat capacity at constant pressure: 2.62 ± 0.14 J/K/mol
36.24 K
  molar heat capacity at constant pressure: 2.82 ± 0.15 J/K/mol
38.12 K
  molar heat capacity at constant pressure: 3.16 ± 0.17 J/K/mol
40 K
  molar heat capacity at constant pressure: 3.52 ± 0.19 J/K/mol
40.1 K
  molar heat capacity at constant pressure: 3.54 ± 0.19 J/K/mol
42.19 K
  molar heat capacity at constant pressure: 3.95 ± 0.21 J/K/mol
44.41 K
  molar heat capacity at constant pressure: 4.41 ± 0.24 J/K/mol
45 K
  molar heat capacity at constant pressure: 4.54 ± 0.24 J/K/mol
46.71 K
  molar heat capacity at constant pressure: 4.93 ± 0.26 J/K/mol
49.16 K
  molar heat capacity at constant pressure: 5.48 ± 0.29 J/K/mol
50 K
  molar heat capacity at constant pressure: 5.66 ± 0.3 J/K/mol
51.71 K
  molar heat capacity at constant pressure: 6.07 ± 0.32 J/K/mol
54.41 K
  molar heat capacity at constant pressure: 6.71 ± 0.36 J/K/mol
55 K
  molar heat capacity at constant pressure: 6.87 ± 0.37 J/K/mol
57.24 K
  molar heat capacity at constant pressure: 7.42 ± 0.4 J/K/mol
60 K
  molar heat capacity at constant pressure: 8.12 ± 0.43 J/K/mol
60.22 K
  molar heat capacity at constant pressure: 8.18 ± 0.44 J/K/mol
63.37 K
  molar heat capacity at constant pressure: 8.97 ± 0.48 J/K/mol
65 K
  molar heat capacity at constant pressure: 9.38 ± 0.5 J/K/mol
66.7 K
  molar heat capacity at constant pressure: 9.78 ± 0.52 J/K/mol
70 K
  molar heat capacity at constant pressure: 10.75 ± 0.57 J/K/mol
70.19 K
  molar heat capacity at constant pressure: 10.75 ± 0.57 J/K/mol
73.8 K
  molar heat capacity at constant pressure: 11.78 ± 0.63 J/K/mol
75 K
  molar heat capacity at constant pressure: 12.2 ± 0.65 J/K/mol
77.13 K
  molar heat capacity at constant pressure: 12.82 ± 0.68 J/K/mol
80 K
  molar heat capacity at constant pressure: 13.67 ± 0.73 J/K/mol
81.7 K
  molar heat capacity at constant pressure: 13.98 ± 0.75 J/K/mol
85 K
  molar heat capacity at constant pressure: 15.16 ± 0.81 J/K/mol
85.33 K
  molar heat capacity at constant pressure: 15.22 ± 0.81 J/K/mol
89.74 K
  molar heat capacity at constant pressure: 16.6 ± 0.89 J/K/mol
90 K
  molar heat capacity at constant pressure: 16.65 ± 0.89 J/K/mol
94.38 K
  molar heat capacity at constant pressure: 17.97 ± 0.96 J/K/mol
95 K
  molar heat capacity at constant pressure: 18.14 ± 0.97 J/K/mol
99.29 K
  molar heat capacity at constant pressure: 19.28 ± 1 J/K/mol
100 K
  molar heat capacity at constant pressure: 19.6 ± 1.1 J/K/mol
104.43 K
  molar heat capacity at constant pressure: 20.84 ± 1.1 J/K/mol
109.84 K
  molar heat capacity at constant pressure: 22.53 ± 1.2 J/K/mol
110 K
  molar heat capacity at constant pressure: 22.48 ± 1.2 J/K/mol
115.54 K
  molar heat capacity at constant pressure: 24.21 ± 1.3 J/K/mol
120 K
  molar heat capacity at constant pressure: 25.26 ± 1.4 J/K/mol
121.46 K
  molar heat capacity at constant pressure: 25.88 ± 1.4 J/K/mol
128.44 K
  molar heat capacity at constant pressure: 27.05 ± 1.4 J/K/mol
130 K
  molar heat capacity at constant pressure: 27.96 ± 1.5 J/K/mol
134.65 K
  molar heat capacity at constant pressure: 29.35 ± 1.6 J/K/mol
140 K
  molar heat capacity at constant pressure: 30.55 ± 1.6 J/K/mol
141.61 K
  molar heat capacity at constant pressure: 31.35 ± 1.7 J/K/mol
148.86 K
  molar heat capacity at constant pressure: 33.43 ± 1.8 J/K/mol
150 K
  molar heat capacity at constant pressure: 33.04 ± 1.8 J/K/mol
156.57 K
  molar heat capacity at constant pressure: 35.12 ± 1.9 J/K/mol
160 K
  molar heat capacity at constant pressure: 35.43 ± 1.9 J/K/mol
165.09 K
  molar heat capacity at constant pressure: 36.06 ± 1.9 J/K/mol
170 K
  molar heat capacity at constant pressure: 37.72 ± 2 J/K/mol
173.67 K
  molar heat capacity at constant pressure: 37.71 ± 2 J/K/mol
180 K
  molar heat capacity at constant pressure: 39.89 ± 2.1 J/K/mol
182.65 K
  molar heat capacity at constant pressure: 39.71 ± 2.1 J/K/mol
190 K
  molar heat capacity at constant pressure: 41.95 ± 2.2 J/K/mol
192.19 K
  molar heat capacity at constant pressure: 41.35 ± 2.2 J/K/mol
200 K
  molar heat capacity at constant pressure: 43.91 ± 2.3 J/K/mol
201.69 K
  molar heat capacity at constant pressure: 44.69 ± 2.4 J/K/mol
210 K
  molar heat capacity at constant pressure: 45.75 ± 2.4 J/K/mol
212.16 K
  molar heat capacity at constant pressure: 46.49 ± 2.5 J/K/mol
220 K
  molar heat capacity at constant pressure: 47.49 ± 2.5 J/K/mol
223.15 K
  molar heat capacity at constant pressure: 48.5 ± 2.6 J/K/mol
230 K
  molar heat capacity at constant pressure: 49.13 ± 2.6 J/K/mol
234.7 K
  molar heat capacity at constant pressure: 50.34 ± 2.7 J/K/mol
240 K
  molar heat capacity at constant pressure: 50.66 ± 2.7 J/K/mol
246.88 K
  molar heat capacity at constant pressure: 52.02 ± 2.8 J/K/mol
250 K
  molar heat capacity at constant pressure: 52.11 ± 2.8 J/K/mol
259.67 K
  molar heat capacity at constant pressure: 53.63 ± 2.9 J/K/mol
260 K
  molar heat capacity at constant pressure: 53.46 ± 2.9 J/K/mol
270 K
  molar heat capacity at constant pressure: 54.73 ± 2.9 J/K/mol
273.07 K
  molar heat capacity at constant pressure: 55.28 ± 3 J/K/mol
273.15 K
  molar heat capacity at constant pressure: 55.11 ± 2.9 J/K/mol
280 K
  molar heat capacity at constant pressure: 55.92 ± 3 J/K/mol
287.77 K
  molar heat capacity at constant pressure: 56.22 ± 3 J/K/mol
290 K
  molar heat capacity at constant pressure: 57.04 ± 3 J/K/mol
298.15 K
  molar heat capacity at constant pressure: 57.89 ± 3.1 J/K/mol
300 K
  molar heat capacity at constant pressure: 58.08 ± 3.1 J/K/mol
302.73 K
  molar heat capacity at constant pressure: 58.1 ± 3.1 J/K/mol
305 K
  molar heat capacity at constant pressure: 58.58 ± 3.1 J/K/mol
